# Data: US20200283734A1, “REPROGRAMMING OF A DIFFERENTIATED CELL TO AN UNDIFFERENTIATED CELL USING EXOSOME” (AGENCY FOR SCIENCE, TECHNOLOGY AND RESEARCH, priority 2017, published 2020)
# Assays:
# [1] = system: MCF7 EX-iCSCs; experiment: Drug resistance assay (Alamar Blue cell viability), MCF7; format: cell-based; details: for drug resistance characteristics of EX-iCSCs towards cancer drugs: MCF7 EX-iCSCs (FIG. 17)
# Protocol: (§1) H7-exosome treated and non-treated A431 and MCF7 cancer cells were seeded at a density of 3×10^3 cells per well in a 96-well plate, in their respective medium. The anticancer drugs, cisplatin, doxorubicin and sunitinib were then added in concentration series ranging from 0.1 to 1000, 0.001 to 10, and 0.1 to 1000 μg/mL, respectively. After time periods of 24, 48 and 72 hours, the cells were subjected to an Alamar Blue assay for cell viability.
# (§2) Drug resistance has been associated with stem cell-like traits in cancer cells. The MCF7 and A431 cell lines were treated with exosomes to induce EX-iCSCs, following which they were subjected to viability (Alamar Blue) assays (FIG. 16, FIG. 17).
# [2] = system: A431 EX-iCSCs; experiment: Drug resistance assay (Alamar Blue cell viability), A431; format: cell-based; details: A431 EX-iCSCs (FIG. 16)
# Protocol: as §1, §2
Structure (SMILES),drug resistance characteristics of EX-iCSCs towards cancer drugs [1],drug resistance characteristics of EX-iCSCs towards cancer drugs [2],"viability of exosome-treated cells under drug compared to non-treated cells ([1]; MCF7, H7-exosome treated, all time points (24, 48 and 72 hours))"
N.N.[Cl][Pt][Cl] [cisplatin],showed drug resistance characteristics,showed drug resistance characteristics,
COc1cccc2c1C(=O)c1c(O)c3c(c(O)c1C2=O)C[C@@](O)(C(=O)CO)C[C@@H]3O[C@H]1C[C@H](N)[C@H](O)[C@H](C)O1 [doxorubicin],showed drug resistance characteristics,showed drug resistance characteristics,significantly higher viability
